Earlier results on six molecules are cited in patent publication US7049120B2, “Regulation of human mrp5-like protein” (Bayer HealthCare AG, priority 2001, dated 2006).

In data set [1] the target is T1, MRP5 (Homo sapiens, UniProt O15440). Details: host or cells: V79 hamster lung fibroblasts, stably expressing. To be noted: MRP5 stably expressed in V79 hamster lung fibroblasts; Jedlitschsky et al., 2000.
For data set [2], the target named is T1, MRP5. Also noted: host or cells: polarized Madin-Darby canine kidney II (MDCK II) cells, transfected. To be noted: MDCK II cells transfected with human MRP5; Wijnholds et al., 2000.
Data set [3] concerns the target T1, MRP5. Also noted: host or cells: polarized Madin-Darby canine kidney II (MDCK II) cells, transfected. To be noted: polarized MDCK II cells overexpressing human MRP5; Wijnholds et al., 2000.

T1 sequence (O15440 whole entry): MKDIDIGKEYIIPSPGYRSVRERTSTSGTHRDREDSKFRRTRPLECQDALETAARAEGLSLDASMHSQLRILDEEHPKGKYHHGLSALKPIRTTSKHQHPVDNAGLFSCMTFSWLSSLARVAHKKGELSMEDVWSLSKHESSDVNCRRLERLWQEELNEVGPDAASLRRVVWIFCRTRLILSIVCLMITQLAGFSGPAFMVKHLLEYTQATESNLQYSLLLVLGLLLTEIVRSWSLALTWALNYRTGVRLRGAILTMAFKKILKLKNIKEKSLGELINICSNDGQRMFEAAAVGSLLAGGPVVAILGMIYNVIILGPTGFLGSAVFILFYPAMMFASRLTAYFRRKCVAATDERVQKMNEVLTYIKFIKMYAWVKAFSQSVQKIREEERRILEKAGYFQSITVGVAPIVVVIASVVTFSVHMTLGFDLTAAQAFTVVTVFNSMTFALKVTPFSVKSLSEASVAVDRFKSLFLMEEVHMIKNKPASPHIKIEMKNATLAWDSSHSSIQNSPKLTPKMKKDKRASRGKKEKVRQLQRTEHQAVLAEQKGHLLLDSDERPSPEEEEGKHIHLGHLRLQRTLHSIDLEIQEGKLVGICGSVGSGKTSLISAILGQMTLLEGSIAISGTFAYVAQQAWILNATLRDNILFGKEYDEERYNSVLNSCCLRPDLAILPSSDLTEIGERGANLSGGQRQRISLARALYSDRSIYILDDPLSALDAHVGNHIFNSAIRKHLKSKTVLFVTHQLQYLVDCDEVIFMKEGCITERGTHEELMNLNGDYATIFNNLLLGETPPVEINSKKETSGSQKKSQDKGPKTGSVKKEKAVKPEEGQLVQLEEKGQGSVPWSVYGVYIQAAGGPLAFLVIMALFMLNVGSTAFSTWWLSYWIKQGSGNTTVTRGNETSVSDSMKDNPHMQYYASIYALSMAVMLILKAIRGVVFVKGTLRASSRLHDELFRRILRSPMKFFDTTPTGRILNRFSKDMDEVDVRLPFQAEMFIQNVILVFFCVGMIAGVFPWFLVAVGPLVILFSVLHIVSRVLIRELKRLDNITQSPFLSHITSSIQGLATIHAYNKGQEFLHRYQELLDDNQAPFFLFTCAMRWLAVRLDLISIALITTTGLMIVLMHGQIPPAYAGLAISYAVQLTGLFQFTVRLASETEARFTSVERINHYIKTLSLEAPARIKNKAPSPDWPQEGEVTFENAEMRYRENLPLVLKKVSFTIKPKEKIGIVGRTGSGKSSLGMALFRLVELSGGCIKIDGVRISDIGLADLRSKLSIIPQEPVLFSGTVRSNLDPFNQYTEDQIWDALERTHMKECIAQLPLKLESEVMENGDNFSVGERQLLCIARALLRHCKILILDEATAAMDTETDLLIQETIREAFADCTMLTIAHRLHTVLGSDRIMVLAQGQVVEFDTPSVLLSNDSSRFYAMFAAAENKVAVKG

As for `COc1cc2c(cc1OC)-c1c/c(=N\c3c(C)cc(C)cc3C)n(C)c(=O)n1CC2` [Trequinsin], the “inhibition of MRP5-mediated transport of cyclic nucleotides such as cGMP” value (from here on “inhibition”) in data set [1] is listed as “inhibited”.

As for `Nc1ncnc2c1ncn2CCOCP(=O)(O)O` [PMEA, 9-(2-phosphonylmethoxyethyl)-adenine], in data set [2], the “transport of the drug by MRP5-transfected cells” value was “transport”.

Consider `Sc1ncnc2nc[nH]c12` [6-mercaptopurine], for which the “resistance of MRP5-overexpressing cells to the drug” value in data set [3] was “resistant”.

On to `CCCOc1ccccc1-c1nc2nn[nH]c2c(=O)[nH]1` [Zaprinast], for which the “inhibition” value in data set [1] is “inhibited”.

On to `CCCc1nn(C)c2c(=O)[nH]c(-c3cc(S(=O)(=O)N4CCN(C)CC4)ccc3OCC)nc12` [Sildenafil], for which the “inhibition” value in data set [1] was “inhibited”.

Consider `Nc1nc2nc[nH]c2c(=S)[nH]1` [thioguanine], for which the “resistance of MRP5-overexpressing cells to the drug” value in data set [3] is given as “resistant”.
